Columns and labels:
Experiment in all cases: normalised response (% of control), CellTiter-Glo; higher = more viable cells (100 = DMSO, 0 = benzethonium chloride kill control)
Conditions in all cases: incubation time: 72 h
CAL-51 = system: CAL-51
Method in brief: (§1)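 Breast cancer cell lines, seeded at 20 µl suspension per well, were incubated for 72 h in 384-well plates containing compound at 5 concentrations. These concentrations rose in 10-fold steps over a 10,000-fold range set for each compound. CellTox Green fluorescence (485/520 nm) was read, then CellTiter-Glo luminescence after 10 min at room temperature, and each plate was normalised to 0.1 % DMSO (100) and a positive kill control (0). Values are normalised signals, each at one concentration.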

MCF-10A = system: MCF-10A
Method in brief: as §1

MDA-MB-231 = system: MDA-MB-231
Method in brief: as §1

Hs578T = system: Hs578T
Method in brief: as §1

MDA-MB-453 = system: MDA-MB-453
Method in brief: as §1

HDQ-P1 = system: HDQ-P1
Method in brief: as §1

HCC1937 = system: HCC1937
Method in brief: as §1

MFM-223 = system: MFM-223
Method in brief: as §1

CAL-85-1 = system: CAL-85-1
Method in brief: as §1

BT-474 = system: BT-474
Method in brief: as §1

CAL-148 = system: CAL-148
Method in brief: as §1

HCC1599 = system: HCC1599
Method in brief: as §1

HCC1143 = system: HCC1143
Method in brief: as §1

MDA-MB-468 = system: MDA-MB-468
Method in brief: as §1

DU-4475 = system: DU-4475
Method in brief: as §1

CAL-120 = system: CAL-120
Method in brief: as §1

BT-549 = system: BT-549
Method in brief: as §1

SK-BR-3 = system: SK-BR-3
Method in brief: as §1

MDA-MB-436 = system: MDA-MB-436
Method in brief: as §1

Compound | normalised response (CAL-51) | normalised response (MCF-10A) | normalised response (MDA-MB-231) | normalised response (Hs578T) | normalised response (MDA-MB-453) | normalised response (HDQ-P1) | normalised response (HCC1937) | normalised response (MFM-223) | normalised response (CAL-85-1) | normalised response (BT-474) | normalised response (CAL-148) | normalised response (HCC1599) | normalised response (HCC1143) | normalised response (MDA-MB-468) | normalised response (DU-4475) | normalised response (CAL-120) | normalised response (BT-549) | normalised response (SK-BR-3) | normalised response (MDA-MB-436)
CCCCC/C=C/C=C1/C(=O)C=C[C@@H]1C/C=C\CCCC(=O)O [15D-PGJ2] (0.8 nM) | 81.2% | 104% | 102% | 101% | 97% | 98.9% | 108% | 102% | 94.7% | 103% | 107% | 93.8% | 108% | 92.8% | 102% | 100% | 97.8% | 101% | 98.2%
O=C(Nc1c[nH]nc1-c1nc2ccc(CN3CCOCC3)cc2[nH]1)NC1CC1 [AT9283] (0.1 nM) | 81.9% | 97.5% | 104% | 97.5% | 98.4% | 96.8% | 99.9% | 100% | 95.8% | 102% | 99.5% | 109% | 97% | 97.2% | 101% | 45.5% | 89% | 90% | 97.5%
COc1cc(CCc2cc(NC(=O)c3ccc(N4CC(C)NC(C)C4)cc3)n[nH]2)cc(OC)c1 (stereo not given) [AZD4547] (0.1 nM) | 135% | 92.3% | 101% | 95.3% | 97.5% | 99.9% | 94.2% | 93.2% | 97.9% | 97.5% | 82.8% | 115% | 101% | 103% | 97.9% | 104% | 105% | 91.5% | 102%
COc1cc(CCc2cc(NC(=O)c3ccc(N4CC(C)NC(C)C4)cc3)n[nH]2)cc(OC)c1 (stereo not given) [AZD4547] (1 nM) | 102% | 96.7% | 96% | 98.6% | 91.9% | 98.3% | 98.4% | 91.9% | 96.9% | 103% | 85% | 104% | 97% | 97.8% | 94.6% | 101% | 94.8% | 106% | 97.2%
CC(=O)OC[C@H]1O[C@@H]([S-])[C@H](OC(C)=O)[C@@H](OC(C)=O)[C@@H]1OC(C)=O.CCP(CC)CC.[Au+] [Auranofin] (0.25 nM) | 70.1% | 108% | 104% | 104% | 103% | 99.9% | 92.3% | 103% | 93.8% | 99.4% | 101% | 75.3% | 99% | 95.7% | 97.9% | 100% | 97.4% | 101% | 93.8%
CC(=O)OC[C@H]1O[C@@H]([S-])[C@H](OC(C)=O)[C@@H](OC(C)=O)[C@@H]1OC(C)=O.CCP(CC)CC.[Au+] [Auranofin] (2.5 nM) | 111% | 107% | 108% | 103% | 99.8% | 91.3% | 94.5% | 104% | 95.4% | 99.4% | 106% | 87.5% | 97.8% | 99.2% | 105% | 92.5% | 95.8% | 104% | 103%
CCC/C=C/C=C/C(=O)O[C@H]1/C(=C/C(=O)OC)C[C@H]2C[C@H]([C@@H](C)O)OC(=O)C[C@H](O)C[C@@H]3C[C@H](OC(C)=O)C(C)(C)[C@](O)(C[C@@H]4C/C(=C/C(=O)OC)C[C@H](/C=C/C(C)(C)[C@]1(O)O2)O4)O3 [Bryostatin 1] (0.01 nM) | 92.1% | 108% | 105% | 100% | 109% | 97.8% | 98.6% | 105% | 101% | 106% | 101% | 118% | 97.7% | 104% | 107% | 96.1% | 99.1% | 103% | 101%
CO[C@@H](C(=O)N1Cc2[nH]nc(NC(=O)c3ccc(N4CCN(C)CC4)cc3)c2C1)c1ccccc1 [Danusertib] (1 nM) | 101% | 94.2% | 104% | 98% | 110% | 93.9% | 95.5% | 94.8% | 96.3% | 101% | 98.2% | 121% | 91.5% | 101% | 99% | 99.1% | 102% | 90.8% | 103%
Cc1nc(Nc2ncc(C(=O)Nc3c(C)cccc3Cl)s2)cc(N2CCN(CCO)CC2)n1 [Dasatinib] (0.1 nM) | 77% | 107% | 93.9% | 99.7% | 112% | 98.9% | 98.5% | 99.9% | 94.2% | 97.3% | 96.9% | 99% | 96.5% | 93.3% | 94.6% | 98.9% | 98.3% | 98.3% | 101%
O=S(=O)(c1cccc2cnccc12)N1CCCNCC1 [Fasudil] (5 nM) | 81.8% | 97.9% | 101% | 97.3% | 107% | 103% | 94.8% | 99.3% | 102% | 97.4% | 105% | 109% | 96.1% | 103% | 101% | 95.5% | 99.6% | 101% | 98%
Cc1c(CN2CCN(C(=O)[C@H](C)O)CC2)sc2c(N3CCOCC3)nc(-c3cnc(N)nc3)nc12 [GDC-0980] (1 nM) | 115% | 108% | 109% | 103% | 94.9% | 103% | 98.9% | 98.8% | 105% | 111% | 112% | 110% | 96.7% | 108% | 104% | 104% | 105% | 105% | 101%
Cc1c(CN2CCN(C(=O)[C@H](C)O)CC2)sc2c(N3CCOCC3)nc(-c3cnc(N)nc3)nc12 [GDC-0980] (10 nM) | 90.2% | 109% | 107% | 98.3% | 97.5% | 94.4% | 107% | 106% | 96.9% | 106% | 117% | 105% | 106% | 113% | 101% | 97.4% | 101% | 108% | 104%
Cc1cccc(-c2nn3c(c2-c2ccnc4ccc(C(N)=O)cc24)CCC3)n1 [Galunisertib] (0.1 nM) | 76.9% | 109% | 100% | 110% | 107% | 104% | 104% | 108% | 98.1% | 108% | 112% | 107% | 110% | 116% | 105% | 104% | 95.7% | 109% | 104%
Nc1cccc2c1CN(C1CCC(=O)NC1=O)C2=O (stereo not given) [Lenalidomide] (1 nM) | 113% | 96.1% | 98.4% | 97.1% | 112% | 97.9% | 94% | 97.3% | 108% | 97% | 97.8% | 106% | 93.1% | 110% | 106% | 94.9% | 101% | 107% | 94%
Nc1cccc2c1CN(C1CCC(=O)NC1=O)C2=O (stereo not given) [Lenalidomide] (10 nM) | 73.6% | 104% | 97.8% | 97.1% | 104% | 99.9% | 91.2% | 95.8% | 106% | 97.8% | 99.7% | 111% | 105% | 105% | 102% | 92.6% | 101% | 107% | 91.9%
C[C@]12O[C@H](C[C@]1(O)CO)n1c3ccccc3c3c4c(c5c6ccccc6n2c5c31)CNC4=O [Lestaurtinib] (0.1 nM) | 91.1% | 92.9% | 102% | 97.8% | 100% | 100% | 95% | 96.7% | 103% | 96.7% | 90.7% | 92.7% | 99.6% | 95.8% | 94.8% | 103% | 98.4% | 89.2% | 94%
O=C1c2c(O)ccc(O)c2C(=O)c2c(NCCNCCO)ccc(NCCNCCO)c21 [Mitoxantrone] (0.1 nM) | 101% | 103% | 98.9% | 96.9% | 99.3% | 102% | 98.1% | 97.3% | 101% | 91.8% | 94.2% | 95.3% | 104% | 97.8% | 94.2% | 103% | 99.3% | 98% | 84.4%
O=C1c2c(O)ccc(O)c2C(=O)c2c(NCCNCCO)ccc(NCCNCCO)c21 [Mitoxantrone] (1 nM) | 73.6% | 97.8% | 100% | 102% | 103% | 96.2% | 98.7% | 106% | 100% | 94.5% | 101% | 96.7% | 98.3% | 100% | 99.1% | 96.9% | 91.3% | 100% | 98.8%
Nc1ccccc1NC(=O)c1ccc(CNc2nccc(-c3cccnc3)n2)cc1 [Mocetinostat] (1 nM) | 85.2% | 91.6% | 103% | 99.3% | 114% | 101% | 102% | 98.1% | 101% | 100% | 109% | 91.5% | 96.7% | 101% | 105% | 102% | 98.5% | 103% | 111%
COc1nc(N)nc2c1ncn2[C@@H]1O[C@H](CO)[C@@H](O)[C@@H]1O [Nelarabine] (1 nM) | 117% | 79.1% | 98.1% | 94.8% | 90.4% | 90.5% | 88.8% | 88.2% | 94.9% | 87.9% | 84.1% | 105% | 92.3% | 84% | 89.5% | 94.5% | 102% | 86.1% | 86%
